Read-outs that look alike come from different tables or passages of the source. Starred links: 1 amine or outer side, 2 acyl side, 3 side chain; linkers in the order of their positions; H or OH if unused. Positions of bridges follow the written chain, without caps; N, C: chain ends. Residues, ends and D or L forms follow the SMILES beside them. *: point of attachment. TBMB = c1c(C[*:1])cc(C[*:3])cc1C[*:2]; X1 = [N-]=[N+]=NCCOCCOCCOCC(=O)*
Experiments:
RbAp48 [1] = target: T1, RbAp48 (Homo sapiens, UniProt Q09028); assay: Competitive fluorescence polarization (FP) assay using complex of peptide 1 and RbAp48; type: binding; parameters: Full length RbAp48 was cloned; His tag followed by 3C cleavage site (N, cleaved yes); made in house; host or cells: Sf9 insect cells
T1 sequence (Q09028 whole entry): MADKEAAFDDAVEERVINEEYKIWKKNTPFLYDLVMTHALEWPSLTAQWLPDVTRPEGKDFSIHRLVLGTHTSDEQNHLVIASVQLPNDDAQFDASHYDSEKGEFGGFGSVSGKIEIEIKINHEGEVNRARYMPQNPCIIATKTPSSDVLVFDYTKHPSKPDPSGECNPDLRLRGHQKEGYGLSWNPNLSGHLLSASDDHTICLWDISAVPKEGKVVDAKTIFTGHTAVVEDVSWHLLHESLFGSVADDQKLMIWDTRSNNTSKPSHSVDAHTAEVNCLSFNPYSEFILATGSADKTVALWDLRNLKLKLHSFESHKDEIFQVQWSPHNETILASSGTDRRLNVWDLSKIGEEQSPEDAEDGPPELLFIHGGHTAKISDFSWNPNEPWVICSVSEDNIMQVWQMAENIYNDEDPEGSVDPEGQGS
Method in brief: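 Sf9-expressed full-length RbAp48 (tag cleaved), 15 nM, displaced from 1 nM fluorescent peptide tracer in 20 mM Tris-HCl pH 7.5, 150 mM NaCl, 0.01% Tween-20. Read by FP (ex 485/em 535 nm) after 30 min at room temperature.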

RbAp48 [2] = target: T1, RbAp48; assay: Pull-down with peptides immobilized on DBCO beads from MDA-MB-231 nuclear lysate; type: binding; parameters: RbAp48 was pulled down from nuclear lysate of MDA‐MB‐231 cells; endogenous in cells; host or cells: MDA-MB-231 nuclear lysate; conditions: 60 µM probe immobilized on DBCO beads, 1.5 h at 4°C, immunoblot
Procedure: To evaluate whether peptide 33 interacts with RbAp48 in a more complex biological environment we modified the N‐terminus with a linker bearing a terminal azide (47, see Table 1, supplemental Figure 4). The peptides were immobilized on DBCO‐beads via copper‐free click chemistry and exposed to MDA‐MB‐231 nuclear lysate. As a negative control an azide modified scrambled peptide sequence (48) with affinity >10 μM was used.
Nuclear lysate of MDA-MB-231 cells was prepared using a Subcellular Protein Fractionation Kit (Thermo Scientific) according to the manufacturer’s instructions. DBCO agarose beads (100 µl) were washed with buffer A ( 50 mM Tris-HCl, 150 mM NaCl, 1 mM DTT, 1% (v/v) Triton X -100, pH 7.4, cOmplete™ EDTA-free Protease Inhibitor Cocktail ) three times. The beads were incubated overnight at 4°C in a solution containing either 47, 48 or no probe (500 µl containing 60 µM probe). After immobilization, the beads were washed again with buffer A three times followed by incubation with the nuclear lysate (500 µl) and incubated for 1.5 h at 4°C. After incubat ion beads were washe d with buffer B (50 mM Tris-HCl, 500 mM NaCl, 1 mM DTT, 1% (v/v) Triton X -100, pH 7.4, cOmplete™ EDTA - free Protease Inhibitor Cocktail ) three times. Protein was eluted by adding SDS sample buffer and loaded the mixture directly on SDS -page gel for analysis. […]

p53 = p53 expression level assay (western blot); type: cell-based; conditions: U2OS cells, 10 µM, 24 h, p53 vs alpha tubulin, two biological replicates
From the text: Encouraged by the promising results from the pulldown experiment, and in order to get insight into bioactivity and possible mode of action, we analyzed peptide 33 in a morphological cell painting assay. The cell painting assay is a target agnostic assay which determines a cells morphological profile after treatment with a compound of interest and compares it to the profiles of a set of reference compounds. ^[22] By identifying reference compounds with a similar profile a hypothesis of the compounds mode of action can be generated based on their annotated targets. ^[23] U2OS cells were treated with our compound and 579 parameters were analyzed. […] We therefore synthesized a variant modified with an N‐terminal TAT sequence to enhance its permeability (compound 49, see Table 1 and Supplemental Figure 4). ^[24] […] Applying compound 49 to the cell painting assay led to an induction of 5.9 % and the corresponding profile was compared to the set of 3000 reference compounds. […] To validate this hypothesis, we exposed U2OS cells to compound 49 and evaluated the levels of p53 by Western blot. […]
U2OS cells were incubated with 10 µM compound 49, 50 or DMSO (DMSO 0.5%) for 24 h followed by lysis for western blotting analysis. p53 ex pression was monitored using fluorescent antibody. Signal ration between p53 and loading control (alpha tubulin) was measured. […]

U2OS cells = assay: Morphological cell painting assay; type: cell-based; conditions: U2OS cells, 20 h, 579 parameters, fraction of significantly changed parameters vs DMSO; 10, 3 or 1 µM
From the text: Encouraged by the promising results from the pulldown experiment, and in order to get insight into bioactivity and possible mode of action, we analyzed peptide 33 in a morphological cell painting assay. The cell painting assay is a target agnostic assay which determines a cells morphological profile after treatment with a compound of interest and compares it to the profiles of a set of reference compounds. ^[22] By identifying reference compounds with a similar profile a hypothesis of the compounds mode of action can be generated based on their annotated targets. ^[23] U2OS cells were treated with our compound and 579 parameters were analyzed. […] We therefore synthesized a variant modified with an N‐terminal TAT sequence to enhance its permeability (compound 49, see Table 1 and Supplemental Figure 4). ^[24] […] Applying compound 49 to the cell painting assay led to an induction of 5.9 % and the corresponding profile was compared to the set of 3000 reference compounds. […] To validate this hypothesis, we exposed U2OS cells to compound 49 and evaluated the levels of p53 by Western blot. […] The exact mechanism by which the compounds elevate levels of p53 requires further investigation. However, it has previously been shown that the NuRD complex, of which RbAp48 is a core component, is able to deacetylate p53 and thereby modulate its stability. ^[26] The effect is mediated by the MTA family of proteins from which the compounds described here are derived. […]
The described assay follows closely the method described by Bray et al. Initially, 5 µl U2OS medium were added to each well of a 384 -well plate (PerkinElmer CellCarrier -384 Ultra). Subsequently, U2OS cell were seeded with a density of 1600 cells per well in 20 µl medium. The plate was incubated for 10 min at the ambient temperatu re, followed by an a dditional 4 h incubation (37 °C, 5 % CO2). Compound treatment was performed with the Echo 520 acoustic dispenser (Labcyte) at final concentrations of 10 µM, 3 µM or 1 µM. Incubation with compound was performed for 20 h (37 °C, 5 % CO2). Subsequently, mitoc hondria were stained with Mito Tracker Deep Red (Thermo Fisher Scientific, Cat. No. M22426). The Mito Tracker Deep Red stock solution (1 mM) was diluted to a final concentration of 100 nM in prewarmed medium. The medium was removed fr om the plate leaving 1 0 µl residual volume and 25 µl of the Mito Tracker solution were added to each well. 22 The plate was incubated for 30 min in darkness (37 °C, 5 % CO2). To fix the cells 7 µl of 18.5 % formaldehyde in PBS were added, resulting in a fi nal formaldehyde conce ntration of 3.7 %. Subsequently, the plate was incubated for another 20 min in darkness (RT) and washed three times with 70 µl of PBS. (Biotek Washer Elx405). Cells were permeabilized by addition of 25 µl 0.1 % Triton X -100 to each well, followed by 15 min incubation (RT) in darkness. The cells were washed three times with PBS leaving a final volume of 10 µl. To each well 25 µl of a staining solution were added, which contains 1 % BSA, 5 µl/mL Phalloidin (Thermo Fisher Scientific, A123 81), 25 µg/ml Concanav alin A (Thermo Fisher Scientific, Cat. […]
conjugate (Thermo Fisher Scientific, Cat. No. W11262) and […] SYTO 14 solution (Thermo Fisher Scientific, Cat. No. S7576). The plate is incubated for 30 min (RT) in darkness and washed three times with 70 µl PBS. After the final washing step the PBS was not aspirated. The plates were sealed and centrifuged for 1 min at 500 rpm.
The plates were prepare d in triplicates with shifted layouts to reduce plate effects and imaged using a Micro XL High-Content Screening System (Molecular Devices) in 5 channels (DAPI: Ex350 -400/ Em410- […]
The generated images were processed with the CellProfiler package (https://cellprofiler.org/, version 3.0.0) on a computing cluster of the Max Planck Society to extract 1716 cell features (parameters) per microscope site. The data was then further aggregated as medians per well (9 sites -> 1 well), then […]

[3] = Table 1, competitive FP, tracer peptide 1 1 nM, RbAp48 15 nM, 20 mM Tris-HCl, 150 mM NaCl, 0.01% Tween-20, pH 7.5, 30 min room temperature, lower limit set by 15 nM protein, read-out: IC50

SMILES	IC50 (RbAp48 [1]; [3]) [µM]	IC50 (RbAp48 [1]; competitive FP assay, read-out: IC50 / affinity) [µM]	enrichment of RbAp48 in pull-down (RbAp48 [2])	FP activity in words (RbAp48 [1]; competitive FP assay)	levels of p53 (p53)	induction (U2OS cells) [%]
C[C@@H]1NC(=O)[C@H](CCCNC(=N)N)NC(=O)[C@@H]2CCCN2C(=O)[C@@H](NC(=O)COCCOCCOCCN=[N+]=[N-])CSCc2cc3cc(c2)CSC[C@@H](C(=O)N[C@@H](CCCCN)C(N)=O)NC(=O)[C@H](CCCNC(=N)N)NC(=O)[C@@H]2CCCN2C(=O)[C@H](C)NC(=O)[C@H]([C@@H](C)O)NC(=O)[C@H](CCCCN)NC(=O)[C@H](Cc2ccc(O)cc2)NC(=O)[C@H](CCCNC(=N)N)NC(=O)[C@H](CSC3)NC1=O [Peptide 48] (X1-CPRACRYKTAPRCK-NH2; linker 1-5-13 via TBMB; N-terminus assumed)	> 10	> 10	no interaction			
C[C@H](NC(=O)[C@@H]1CSCc2cc3cc(c2)CSC[C@H](NC(=O)[C@H](CCCNC(=N)N)NC(=O)[C@H](CCCCN)NC(=O)[C@H]([C@@H](C)O)NC(=O)[C@@H](NC(=O)COCCOCCOCCN=[N+]=[N-])CSC3)C(=O)N[C@@H](C)C(=O)N[C@@H](CCCNC(=N)N)C(=O)N[C@@H](CCCNC(=N)N)C(=O)N2CCC[C@H]2C(=O)N[C@@H](Cc2ccc(O)cc2)C(=O)N[C@@H](CCCCN)C(=O)N2CCC[C@H]2C(=O)N1)C(N)=O [Peptide 47] (X1-CTKRCARRPYKPCA-NH2; linker 1-5-13 via TBMB; N-terminus assumed)	0.0139 ± 0.0056		successfully able to enrich RbAp48			
C[C@H](NC(=O)[C@@H]1CSCc2cc3cc(c2)CSC[C@H](NC(=O)[C@H](CCCNC(=N)N)NC(=O)[C@H](CCCCN)NC(=O)[C@H]([C@@H](C)O)NC(=O)[C@@H](NC(=O)CNC(=O)[C@H](CCC(N)=O)NC(=O)[C@@H]2CCCN2C(=O)[C@H](CCCNC(=N)N)NC(=O)[C@H](CCCNC(=N)N)NC(=O)[C@H](CCCNC(=N)N)NC(=O)[C@H](CCC(N)=O)NC(=O)[C@H](CCCNC(=N)N)NC(=O)[C@H](CCCNC(=N)N)NC(=O)[C@H](CCCCN)NC(=O)[C@H](CCCCN)NC(=O)[C@H](CCCNC(=N)N)NC(=O)CN)CSC3)C(=O)N[C@@H](C)C(=O)N[C@@H](CCCNC(=N)N)C(=O)N[C@@H](CCCNC(=N)N)C(=O)N2CCC[C@H]2C(=O)N[C@@H](Cc2ccc(O)cc2)C(=O)N[C@@H](CCCCN)C(=O)N2CCC[C@H]2C(=O)N1)C(N)=O [Peptide 49] (H-GRKKRRQRRRPQGCTKRCARRPYKPCA-NH2; linker 14-18-26 via TBMB)	0.0044 ± 0.0014			slightly more active than its parent compound 33	increased	5.9
N=C(N)NCCC[C@H](NC(=O)CN)C(=O)N[C@@H](CCCCN)C(=O)N[C@@H](CCCCN)C(=O)N[C@@H](CCCNC(=N)N)C(=O)N[C@@H](CCCNC(=N)N)C(=O)N[C@@H](CCC(N)=O)C(=O)N[C@@H](CCCNC(=N)N)C(=O)N[C@@H](CCCNC(=N)N)C(=O)N[C@@H](CCCNC(=N)N)C(=O)N1CCC[C@H]1C(=O)N[C@@H](CCC(N)=O)C(N)=O [Peptide 50, reference compound]	1.24 ± 0.358			weakly inhibit the interaction	no increase	

From article PMC7894522, “Structure Based Design of Bicyclic Peptide Inhibitors of RbAp48” (Angewandte Chemie (International Ed. in English), 2020)
